Assay results from paper PMC9234671, “Molecular determinants of αVβ5 localization in flat clathrin lattices – role of αVβ5 in cell adhesion and proliferation” (Journal of Cell Science, 2022).
Entries after “also recorded” stand apart in the source; their conditions may differ. Values belong to the molecule of their own block, whether it stands above or below them. Ends that are not written are not given here.

Tests used:
full-length human ARH = biological target: T1, full-length human ARH (Homo sapiens, UniProt Q5SW96); experiment: Microscale thermophoresis (MST), ARH; assay type: binding
T1 construct: The full-length human ARH gene was cloned into the pETNKI-6xhis-3C-LIC vector; made in house; host or cells: E. coli BL21(DE3)
T1 sequence (Q5SW96 1-308): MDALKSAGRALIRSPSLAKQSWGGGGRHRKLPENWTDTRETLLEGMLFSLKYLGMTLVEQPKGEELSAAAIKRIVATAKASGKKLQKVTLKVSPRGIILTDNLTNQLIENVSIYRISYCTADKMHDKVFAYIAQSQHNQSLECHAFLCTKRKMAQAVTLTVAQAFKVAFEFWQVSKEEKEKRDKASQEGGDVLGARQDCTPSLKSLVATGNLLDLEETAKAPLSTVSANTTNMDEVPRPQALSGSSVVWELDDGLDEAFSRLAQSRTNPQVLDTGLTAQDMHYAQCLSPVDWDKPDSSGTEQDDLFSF
Text: (§1) Fig. 2. Adaptor protein binding to integrin β subunits. (A) Colocalization of integrin chimeras fused to the promiscuous biotin ligase BirA* (green in merge) with vinculin (red; left panels) or clathrin (red; right panels) in PA-JEB/β4 keratinocytes. Actin is shown in blue. Nuclei are stained with DAPI (cyan). Scale bars: 20 μm. (B) Representative western blots of BioID assays performed using the integrin chimeras shown in A. Quantifications of ARH, Numb and talin signal intensities normalized to streptavidin-HRP levels are shown (n=3; bars show mean±s.d.). (C) Representative western blots of pulldown assays (from two repeats) using synthetic integrin β cytoplasmic domains in RAC-11P cell lysates.
The full-length human ARH gene was cloned into the pETNKI-6xhis-3C-LIC vector ([Luna-Vargas et al., 2011]) and 6xhis–ARH protein was produced in Bl21(DE3) E. coli cells. Cells were grown at 37°C until an optical density at 600 nm (OD600) of 0.6 was reached. Temperature was reduced to 30°C and protein was expressed upon induction with 0.4 mM IPTG for 3.5 h. Cells were harvested and resuspended in lysis buffer (20 mM HEPES, pH 7.5, 200 mM NaCl, 1 mM TCEP and 5 μg ml^−1 DNase). After sonication, cell debris and insoluble proteins were removed by centrifugation (21,000 g for 30 min). 6xhis–ARH was purified from the soluble fraction using nickel Sepharose beads and eluted in 20 mM HEPES, pH 7.5, 200 mM NaCl, 1 mM TCEP and 250 mM imidazole. Fractions containing 6xhi–ARH were further purified on a SEC650 size exclusion column (Bio-Rad), equilibrated with 20 mM HEPES, pH 7.5, 100 mM NaCl and 1 mM TCEP.
All MST measurements were performed on a Monolith NT.115 red-blue (Nanotemper, Munich, Germany) using premium-coated capillaries to reduce non-specific interaction of the proteins with the glass surface. Both interaction partners (ligand and receptor) were transferred into MST buffer (20 mM Tris-HCl pH 7.5, 200 mM sodium chloride, 1 mM TCEP and 0.05% Tween-20) to avoid artifacts derived from buffer mismatches. […] Data was analyzed using the MO Affinity Analysis Software (Nanotemper).

Numb-PTB (20-175) = biological target: T2, Numb-PTB (20-175) (Homo sapiens, UniProt P49757); experiment: Microscale thermophoresis (MST), Numb; assay type: binding
T2 construct: A pETNKI-6xhis-3C-Numb-PTB (20-175) construct was expressed in Rosetta2 (DE3) cells; 6xHis-3C (N, cleaved yes); made in house; host or cells: E. coli Rosetta2 (DE3)
T2 sequence (P49757 20-175): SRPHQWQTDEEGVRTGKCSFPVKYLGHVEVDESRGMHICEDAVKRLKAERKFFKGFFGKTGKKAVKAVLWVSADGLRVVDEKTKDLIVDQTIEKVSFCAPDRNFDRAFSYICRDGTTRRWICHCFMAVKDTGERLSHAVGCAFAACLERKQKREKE
Text: as §1
A pETNKI-6xhis-3C-Numb-PTB (20-175) construct was expressed in Rosetta2 (DE3) cells for 18 h at 20°C. Cells were lysed (25 mM Tris-HCl pH 8.0, 10 mM imidazole, 200 mM NaCl, 1 mM TCEP, 5 μg/ml DNase) and sonicated, after which insoluble proteins and cell debris were removed by centrifugation (21,000 g for 30 min at 4°C). Soluble lysate was applied to a nickel Sepharose column and beads were washed with wash buffer (lysis buffer without DNase) before protein was eluted in wash buffer supplemented with 250 mM imidazole. The 6xhis tag was cleaved off by his-3C protease during dialysis against 25 mM Tris-HCl pH 8.0, 100 mM NaCl, 1 mM TCEP, 16 h at 4°C. Elution fractions were pooled, diluted with six volumes of 20 mM HEPES pH 7.5, 1 mM TCEP and applied to a 1 ml Resource S cation-exchange column (Cytiva). Protein was eluted in a NaCl gradient (50–700 mM) in 25 mM HEPES (pH 7.5). 6xhis-Numb-PTB was concentrated and further purified by size-exclusion chromatography (SEC70 column, Bio-Rad) in 25 mM Tris-HCl pH 8.0, 200 mM NaCl and 1 mM TCEP.
All MST measurements were performed on a Monolith NT.115 red-blue (Nanotemper, Munich, Germany) using premium-coated capillaries to reduce non-specific interaction of the proteins with the glass surface. […] Data was analyzed using the MO Affinity Analysis Software (Nanotemper).

[1] = biological target: T3, talin-1 head domain (THD1) (Homo sapiens, UniProt Q9Y490); experiment: Microscale thermophoresis (MST), talin-1 head domain; assay type: binding; details: Atto488-labeled β5 cytoplasmic tail 50–200 nM, 20 mM Tris-HCl pH 7.5, 200 mM NaCl, 1 mM TCEP, 0.05% Tween-20, mean±s.d., n≥5
T3 construct: pCoofy17-THD1 (1-405) constructs were transformed into Rosetta2(DE3) cells; His-SUMO (N, cleaved yes); made in house; host or cells: E. coli Rosetta2(DE3)
T3 sequence (Q9Y490 1-405): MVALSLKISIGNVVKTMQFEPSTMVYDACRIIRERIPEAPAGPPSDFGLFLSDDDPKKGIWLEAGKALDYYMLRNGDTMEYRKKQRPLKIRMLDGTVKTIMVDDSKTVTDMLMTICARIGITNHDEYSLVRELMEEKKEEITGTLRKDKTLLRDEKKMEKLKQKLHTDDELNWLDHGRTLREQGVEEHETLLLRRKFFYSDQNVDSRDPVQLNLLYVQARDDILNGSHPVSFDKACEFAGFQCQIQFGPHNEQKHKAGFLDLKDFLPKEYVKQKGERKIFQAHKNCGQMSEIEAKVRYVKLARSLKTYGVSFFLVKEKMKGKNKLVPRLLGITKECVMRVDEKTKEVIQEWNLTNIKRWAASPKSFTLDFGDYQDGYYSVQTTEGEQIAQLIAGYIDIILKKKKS
Text: as §1, with “lysates. […]” for “lysates.”
pCoofy17-THD1 (1-405) constructs were transformed into Rosetta2(DE3) cells and his-SUMO-THD1 proteins were expressed for 16 h at 20°C after induction with 0.4 mm IPTG. Cells were harvested and resuspended in 25 mM Tris-HCl pH 8.0, 10 mM imidazole, 200 mM NaCl, 1 mM TCEP and 5 μg ml^−1 DNase, and lysed by sonication. […]
All MST measurements were performed on a Monolith NT.115 red-blue (Nanotemper, Munich, Germany) using premium-coated capillaries to reduce non-specific interaction of the proteins with the glass surface. […] Data was analyzed using the MO Affinity Analysis Software (Nanotemper). […]

Numb = experiment: Peptide pulldown, Numb; assay type: binding; details: desthiobiotin tail peptide on streptavidin beads, RAC-11P lysate, 4°C, 4 h; western blot; two repeats
Description: (§2) Peptide pulldowns were carried out as previously described ([Böttcher et al., 2012]) with the mouse β1 wild-type cytoplasmic tail peptide ([…]-OH) and a scrambled peptide ([…]-OH), mouse β3 wild-type tail peptide ([…]-OH), mouse β5 wild-type tail peptide ([…]-OH), β5 Δ8aa tail peptide ([…]-OH) and scrambled peptide […].
(§3) The tail peptides were synthesized de novo with a desthiobiotin on the N-terminus, coupled to Dynabeads MyOne streptavidin C1 (10 mgml^−1, Invitrogen) and incubated with RAC-11P cell lysates (prepared with M-PER reagent, Thermo Fisher Scientific) at 4°C with rotation for 4 h. After three washes with wash buffer (M-PER diluted 1:1 with PBS), bound proteins were eluted in 2× Laemmli buffer at 95°C for 5 min and separated on an 8% SDS-PAGE gel.

SNX17 = experiment: Peptide pulldown, SNX17; assay type: binding; details: desthiobiotin tail peptide on streptavidin beads, RAC-11P lysate, 4°C, 4 h; western blot; two repeats
Description: as §2, §3

[2] = system: cytoskeletal or clathrin adaptor proteins; experiment: Peptide pulldown, cytoskeletal or clathrin adaptor proteins; assay type: binding; details: desthiobiotin tail peptide on streptavidin beads, RAC-11P lysate, 4°C, 4 h; western blot; two repeats
Description: as §2, §3

ARH = experiment: Peptide pulldown, ARH; assay type: binding; details: desthiobiotin tail peptide on streptavidin beads, RAC-11P lysate, 4°C, 4 h; western blot; two repeats
Description: as §2, §3

[3] = biological target: Atto488-labeled integrin β5 cytoplasmic tail; experiment: MST; 50–200 nM Atto488-labeled integrin-β cytoplasmic tail as ligand; 20 mM Tris-HCl pH 7.5, 200 mM sodium chloride, 1 mM TCEP, 0.05% Tween-20; Monolith NT.115
[4] = MST, Atto488-labeled β5 cytoplasmic tail 50–200 nM, 20 mM Tris-HCl pH 7.5, 200 mM NaCl, 1 mM TCEP, 0.05% Tween-20, mean±s.d., n≥5
[5] = concentration range tested up to 75 µM for β3

Kd (full-length human ARH; [4]): 5.6 ± 1.4 µM
Kd (Numb-PTB (20-175); [4]): 28.5 ± 7.7 µM
Kd [1]: 41.7 ± 9.5 µM
Molecule: DRREFAKFQSERSRARYEMASNPLYRKPISTHTVDFAFNKFNKSYNGSVD [β5]

Molecule: DRREFAKFQSERSRARYEMASNPLYRKPISTVVNKSYNGSVD-OH [β5 Δ8 aa, β5 tail peptide carrying a deletion of 8 amino acids between the NPxY and NxxY motifs]
interaction with Numb in pulldown (Numb): binds considerably more
interaction with SNX17 in pulldown (SNX17): abrogated
binding of cytoskeletal or clathrin adaptor proteins in pulldown [2]: prevented neither the clustering of β5 in FCLs ([Zuidema et al., 2018]) nor the binding of cytoskeletal or clathrin adaptor proteins to the β5 tail

Molecule: EYEFEPDKVDTGAKGTKMAKNEKKFRNYTVHNIWESRKVAP-OH [β1 scrambled peptide, scrambled β1 tail peptide, control, reference compound]
interaction with ARH in pulldown (ARH): hardly
interaction with Numb in pulldown (Numb): some background binding

Molecule: HDRKEFAKFEEERARAKWDTANNPLYKEATSTFTNITYRGT-OH [β3, synthetic integrin β3 cytoplasmic tail peptide]
binding to ARH by MST (β3) (full-length human ARH; [5]): no binding; also recorded: unable to detect binding
binding to Numb by MST (β3) (Numb-PTB (20-175); [5]): no binding; also recorded: unable to detect binding
interaction with ARH in pulldown (ARH): not β1 and β3, bind to Numb and ARH
interaction with Numb in pulldown (Numb): not β1 and β3, bind to Numb and ARH
interaction with SNX17 in pulldown (SNX17): interacted strongly

Kd [3]: 41.7 µM
Molecule: talin-1 head domain (THD1) (from UniProt P26039 1-405) (domain or fragment)

Kd [3]: 5.6 µM
B1: 6xhis–ARH (natural protein)
chain: MDALKSAGRALIRSPSLAKQSWGGGGRHRKLPENWTDTRETLLEGMLFSLKYLGMTLVEQPKGEELSAAAIKRIVATAKASGKKLQKVTLKVSPRGIILTDNLTNQLIENVSIYRISYCTADKMHDKVFAYIAQSQHNQSLECHAFLCTKRKMAQAVTLTVAQAFKVAFEFWQVSKEEKEKRDKASQEGGDVLGARQDCTPSLKSLVATGNLLDLEETAKAPLSTVSANTTNMDEVPRPQALSGSSVVWELDDGLDEAFSRLAQSRTNPQVLDTGLTAQDMHYAQCLSPVDWDKPDSSGTEQDDLFSF

Kd [3]: 28.5 µM
B2: Numb-PTB (20-175) (domain or fragment)
chain: SRPHQWQTDEEGVRTGKCSFPVKYLGHVEVDESRGMHICEDAVKRLKAERKFFKGFFGKTGKKAVKAVLWVSADGLRVVDEKTKDLIVDQTIEKVSFCAPDRNFDRAFSYICRDGTTRRWICHCFMAVKDTGERLSHAVGCAFAACLERKQKREKE
